Reference: patent US8729048B2, “Methods and materials for assessing responsiveness to PARP inhibitors and platinating agents” (Mayo Foundation for Medical Education and Research, priority 2011, dated 2014)

Legend:
Type in all cases: cell-based
[1] = test system: BRCA2-deficient PEO1 cells; experiment: Clonogenic assay, PEO1
Method: (§1) FIG. 5. NHEJ is a major contributor to PARP inhibitor effects in BRCA2-deficient cells. (A) Western blots showing knockdown of Ku80 in PEO1 and PEO4 cells. (B) Clonogenic survival of PEO1 and PEO4 cells from (A), which were treated with the indicated ABT-888 concentration for 72 hours, washed, and allowed to form colonies. (C) Western blots following treatment with siRNA targeting luciferase (control), Ku80, PARP1, or both Ku80 and PARP1. (D) Clonogenic viability of PEO 1 and PEO4 cells from (C). Following knockdown, cells were plated onto triplicate plates and allowed to form colonies. (E) Clonogenic survival of PEO1 cells following Artemis knockdown. After treatment with the indicated siRNA, plates were treated with indicated concentration of ABT-888 for 72 hours, washed, and allowed to form colonies. Inset, Western blots showing knockdown using luciferase (control) or Artemis siRNAs in PEO1 cells. (F) Clonogenic survival of PEO1 and PEO4 cells treated for 72 hours with ABT-888 in combination with diluent or 500 nM DNA-PKi. All results are reported as means of triplicate plates±SEM, and are representative of 3 independent experiments.
FIG. 13. DNA-PK inhibition diminishes the lethality of multiple PARP inhibitors in PEO1 cells. (A) Representative clonogenic plates after PEO1 cells were treated with ABT-888 (0, 5, or 20 μM) with or without 500 nM DNA-PKi. (B, C) Bar graphs comparing clonogenic survival of PEO1 cells exposed to two PARP inhibitors with or without 500 nM DNA-PKi. The PARP inhibitors used for these assays are ABT-888 (B) and AZD2281/olaparib (C). Results are reported as mean±SEM of triplicate plates.
FIG. 18. Artemis knockdown confers resistance to PARP inhibition and cisplatin in BRCA2-deficient/mutant cells. Clonogenic survival assays of PEO1 shRNA lines continuously exposed to ABT-888 (A) or cisplatin (B), or exposed to ionizing radiation (C). (D-F) Clonogenic survival assays of CAPAN1 shRNA lines exposed to ABT-888 (D), cisplatin (E), or exposed to ionizing radiation (F).
(§2) Colony formation assays were performed on siRNA-transfected PEO1 and PEO4 cells 48 hours after the second transfection. Cells were trypsinized and plated at 750 cells/plate in triplicate 60-mm dishes containing medium A, allowed to grow 10-14 days, and stained with Coomassie Brilliant Blue. Colonies containing ≧50 cells were scored manually. To assess methyl methanesulfonate (MMS) sensitivity, PEO1 or PEO4 cells were incubated for 48 hours after the second siRNA treatment, plated onto 60-mm dishes, allowed to adhere for 4 hours, exposed to the indicated concentration of MMS (Sigma-Aldrich) for 1 hour, washed with sterile RPMI 1640, and allowed to grow into colonies in medium A. For drug treatment, cells (without siRNA) were allowed to adhere for 4-6 hours, then treated with the indicated concentrations of ABT-888 and/or AZ12594248 for 72 hours. Following drug treatment, cells were washed with drug-free RPMI 1640, cultured for 10-14 days in medium A, and stained. For HCC1937 and HCC1937/BRCA1 cells, a similar procedure was used with several changes: 1000 cells were plated in medium B, and treatment was continuous for 16-20 days. M059J and M059J+DNA-PKcs were plated at 1000 cells per plate in medium C and treated for 48 hours. GM16666 and 16667 were plated at 1000 cells per plate in medium D and treated for 48 hours.

[2] = test system: DNA-PK substrates (DNA-PKcs Thr2609, Histone H2AX Ser139) in PEO1 cells; experiment: Immunoblotting for phosphorylation of DNA-PK substrates; details: 72 hours, with 20 μM ABT-888, 500 nM DNA-PKi or 5 μM ATMi
Method: FIG. 2. DNA-PK is activated following PARP inhibitor exposure in PEO1 cells. (A) Western blots for poly(ADP-ribose) polymer (pADPr) and phosphorylation of DNA-PK substrates (DNA-PKcs autophosphorylation at Thr^2609 and Histone H2AX at Ser^139) in PEO1 cells following 72 hours exposure to increasing concentrations of ABT-888 (0, 0.625, 1.25, 2.5, 5, 10, 20, and 40 μM). Hsp90, total DNA-PKcs, and Histone H1 are used as loading controls. (B) Phosphorylation of DNA-PK substrates after treatment for 72 hours with diluent (0.2% DMSO, lanes 1 and 4), 500 nM DNA-PK inhibitor AZ12594248 (DNA-PKi, lanes 2 and 5), or 5 μM ATM inhibitor KU55933 (ATMi, lanes 3 and 6) alone (lanes 1-3) or in combination with 20 μM ABT-888 (lanes 4-6). (C) Quantitation of cells positive for phospho-H2AX foci in PEO1 and PEO4 cells, following treatment with DMSO, 500 nM DNA-PKi, 20 μM ABT-888 (ABT), ABT-888 and DNA-PKi, 50 μM Etoposide (Etop), or 5 Gy ionizing radiation (IR). Cells were exposed to ABT-888 and/or DNA-PKi for 72 hours, etoposide for 1 hour, or allowed to recover for 1 hour after IR. Results are reported as mean±SEM of 3 independent experiments. (D) Confocal images of PEO1 cells treated as in […]. Phospho-Ser^139-H2AX is shown in green, phospho-Thr^2609-DNA-PKcs in red, and Hoechst 33258 in blue.
Cells were washed twice with calcium- and magnesium-free Dulbecco's phosphate-buffered saline (PBS) and solubilized in 6 M guanidine hydrochloride containing 250 mM Tris-HCl, pH 8.5 at 20° C., 10 mM EDTA, 1% (v/v) 2-mercaptoethanol, and 1 mM freshly added phenylmethylsulfonyl fluoride. After preparation for electrophoresis as described elsewhere (Kaufmann et al., Blood, 89:2098-2104 (1997)), aliquots containing 50 μg of protein (determined by the bicinchoninic acid method—S10) were separated on SDS-polyacrylamide gels containing 8% (w/v) acrylamide, electrophoretically transferred to nitrocellulose, and probed with immunological reagents as described elsewhere (Kaufmann, Anal. Biochem., 296:283-286 (2001)). […]

[3] = test system: BRCA2-positive PEO4 cells; experiment: Clonogenic assay, PEO4; details: XRCC1 siRNA, 1 hour exposure
Method: as §1
as §2, with “Following drug treatment, cells were washed with drug-free RPMI 1640, cultured for 10-14 days in medium A, and stained. For HCC1937 and HCC1937/BRCA1 cells, a similar procedure was used with several changes: 1000 cells were plated in medium B, and treatment was continuous for 16-20 days. M059J and M059J+DNA-PKcs were plated at 1000 cells per plate in medium C and treated for 48 hours. GM16666 and 16667 were plated at 1000 cells per plate in medium D and treated for 48 hours.” left out

Q: With `N.N.[Cl][Pt][Cl]` [cisplatin] as the compound, how does the “clonogenic sensitivity after stable Artemis knockdown” value ([1]; PEO1 shRNA lines, continuous exposure) read?
A: Its value is “conferred resistance”.

Q: For `O=c1cc(-c2cccc3c2Sc2ccccc2S3)oc(N2CCOCC2)c1` [KU55933], which “effect on ABT-888-induced phosphorylation of DNA-PKcs and H2AX” value [2] is on record?
A: The value was “did not”.

Q: For `COS(C)(=O)=O` [methane methylsulfonate, methyl methanesulfonate], which “clonogenic sensitivity after XRCC1 knockdown” value [3] is on record?
A: The value was “sensitized”.

Q: What about the “clonogenic sensitivity after XRCC1 knockdown” value ([1]; PEO1 cells, XRCC1 siRNA, 1 hour exposure) of the same compound?
A: Its value is “sensitized”.
